≈ marks a conversion by molar mass, not a printed value. Where two headings read alike, the source gives them in different places.
Legend:
Assay type in all cases: cell-based
[1] = system: STAPHYLOCOCCUS AUREUS CMX 553; test: In vitro antibacterial activity, agar dilution MIC
[2] = system: PSEUDOMONAS AERUGINOSA BMH10; test: In vitro antibacterial activity, agar dilution MIC
[3] = system: STAPHYLOCOCCUS AUREUS NCTC 10649; test: In vitro antibacterial activity, agar dilution MIC; details: NCTC10649, 24 h
[4] = system: ACINETOBACTER CALCOACETICUS CMX 669; test: In vitro antibacterial activity, agar dilution MIC; details: A. calcoaceticus CMX 669, BHI agar, 35-37° C., 20 to 24 hours
ESCHERICHIA COLI DC-2 = test: In vitro antibacterial activity, agar dilution MIC
[5] = system: KLEBSIELLA PNEUMONIAE ATCC 8045; test: In vitro antibacterial activity, agar dilution MIC; details: ATCC8045, 24 h
ESCHERICHIA COLI SS = test: In vitro antibacterial activity, agar dilution MIC; details: 24 h
EN[…] ATCC 8043 = test: In vitro antibacterial activity, agar dilution MIC; details: Enterococcus faecium, ATCC8043, 24 h
Protocol: (§1) Representative compounds of the present invention were assayed in vitro for antibacterial activity as follows: Twelve petri dishes containing successive aqueous dilutions of the test compound mixed with 10 ml of sterilized Brain Heart Infusion (BHI) agar (Difco 0418-01-5) were prepared. Each plate was inoculated with 1:100 (or 1:10 for slow-growing strains, such as Micrococcus and Streptococcus) dilutions of up to 32 different microorganisms, using a Steers replicator block. The inoculated plates were incubated at 35°-37° C. for 20 to 24 hours. In addition, a control plate, using BHI agar containing no test compound, was prepared and incubated at the beginning and end of each test.
(§2) An additional plate containing a compound having known susceptibility patterns for the organisms being tested and belonging to the same antibiotic class as the test compound was also prepared and incubated as a further control, as well as to provide test-to-test comparability. Erythromycin A was used for this purpose.
(§3) After incubation, each disk was read. The minimum inhibitory concentration (MIC) was defined as the lowest concentration of drug yielding no growth, a slight haze, or sparsely isolated colonies on the inoculum spot as compared to the growth control. The results of this assay, shown below in Tables 1 and 2, support the conclusion that the compounds of the invention are effective antibacterial agents.

[6] = system: PSEUDOMONAS AERUGINOSA K799/61; test: In vitro antibacterial activity, agar dilution MIC
Protocol: as §1, §2, §3

M[…] ATCC 9341 = test: In vitro antibacterial activity, agar dilution MIC; details: Micrococcus luteus, ATCC9341, 24 h
Protocol: as §1, §2, §3

M[…] ATCC 4698 = test: In vitro antibacterial activity, agar dilution MIC; details: Micrococcus luteus, ATCC4698, 24 h
Protocol: as §1, §2, §3

STR[…] 508 = test: In vitro antibacterial activity, agar dilution MIC; details: Streptococcus agalactiae, 24 h
Protocol: as §1, §2
(§4) After incubation, each disk was read. The minimum inhibitory concentration (MIC) was defined as the lowest concentration of drug yielding no growth, a slight haze, or sparsely isolated colonies on the inoculum spot as compared to the growth control.

STR[…] EES61 = test: In vitro antibacterial activity, agar dilution MIC; details: Streptococcus pyogenes, 24 h
Protocol: as §1, §2, §4

[7] = system: ENTEROBACTER AEROGENES ATCC 13048; test: In vitro antibacterial activity, agar dilution MIC; details: Klebsiella aerogenes, ATCC13048; E. aerogenes ATCC 13048; BHI agar, 35-37° C., 20 to 24 hours; read-out: MIC
ESCHERICHIA COLI JUHL = test: microbe, parasite or virus in culture
[8] = system: STAPHYLOCOCCUS AUREUS 1775; test: In vitro antibacterial activity, agar dilution MIC; details: S. aureus 1775, BHI agar, 35-37° C., 20 to 24 hours, read-out: MIC
[9] = system: STREPTOCOCCUS BOVIS A5169; test: In vitro antibacterial activity, agar dilution MIC; details: 24 h
[10] = system: STREPTOCOCCUS PYOGENES 930 CONST; test: In vitro antibacterial activity, agar dilution MIC; details: S. pyogenes 930 CONST, BHI agar, 35-37° C., 20 to 24 hours, read-out: MIC
[11] = system: STREPTOCOCCUS PYOGENES 2548 INDUC; test: In vitro antibacterial activity, agar dilution MIC; details: 24 h
[12] = system: PSEUDOMONAS AERUGINOSA K799/WT; test: In vitro antibacterial activity, agar dilution MIC; details: P. aeruginosa K799/WT, BHI agar, 35-37° C., 20 to 24 hours
[13] = system: STAPHYLOCOCCUS EPIDERMIDIS 3519; test: microbe, parasite or virus in culture
[14] = system: PSEUDOMONAS AERUGINOSA A5007; test: In vitro antibacterial activity, agar dilution MIC; details: P. aeruginosa A5007, BHI agar, 35-37° C., 20 to 24 hours
[15] = system: STAPHYLOCOCCUS AUREUS ATCC 6538P; test: In vitro antibacterial activity, agar dilution MIC; details: ATCC6538P
STAPHYLOCOCCUS AUREUS 45 = test: In vitro antibacterial activity, agar dilution MIC; details: 24 h
[16] = system: PROVIDENCIA STUARTII CMX 640; test: microbe, parasite or virus in culture
[17] = system: STAPHYLOCOCCUS AUREUS A5177; test: In vitro antibacterial activity, agar dilution MIC; details: S. aureus A5177, BHI agar, 35-37° C., 20 to 24 hours, read-out: MIC
ESCHERICHIA COLI H560 = test: In vitro antibacterial activity, agar dilution MIC
ESCHERICHIA COLI KNK 437 = test: microbe, parasite or virus in culture; details: E. coli KNK 437, BHI agar, 35-37° C., 20 to 24 hours
PSEUDOMONAS CEPACIA 296I = test: In vitro antibacterial activity, agar dilution MIC; details: Burkholderia cepacia; P. cepacia 296I; BHI agar, 35-37° C., 20 to 24 hours; read-out: MIC
[18] = system: STAPHYLOCOCCUS AUREUS 642A; test: In vitro antibacterial activity, agar dilution MIC; details: 24 h

CC[C@H]1OC(=O)[C@H](C)[C@@H](O[C@H]2C[C@@](C)(OC)[C@@H](O)[C@H](C)O2)[C@H](C)[C@@H](O[C@@H]2O[C@H](C)C[C@H](N(C)C)[C@H]2O)[C@](C)(O)C[C@@H](C)[C@@H](N(C)C)[C@H](C)[C@@H](O)[C@@]1(O)CNC [Compound 17, (9R)-9-deoxo-9-(N,N-dimethylamino)-21-(N-methylamino)-erythromycin A]
MIC ([1]; S. aureus CMX 553, BHI agar, 35-37° C., 20 to 24 hours, read-out: MIC): 12.5 µg/mL (≈ 15.8 µM) | MIC ([2]; P. aeruginosa BMH10, BHI agar, 35-37° C., 20 to 24 hours, read-out: MIC): 100 µg/mL (≈ 126 µM) | MIC [3]: 6.2 µg/mL (≈ 7.83 µM) | MIC [4]: 100 µg/mL (≈ 126 µM) | MIC (ESCHERICHIA COLI DC-2; 24 h): 50 µg/mL (≈ 63.1 µM) | MIC [5]: 50 µg/mL (≈ 63.1 µM) | MIC (ESCHERICHIA COLI SS): 0.78 µg/mL (≈ 0.985 µM) | MIC (EN[…] ATCC 8043): 3.1 µg/mL (≈ 3.91 µM) | MIC ([6]; 24 h): 3.1 µg/mL (≈ 3.91 µM) | MIC (M[…] ATCC 9341): 1.56 µg/mL (≈ 1.97 µM) | MIC (M[…] ATCC 4698): 1.56 µg/mL (≈ 1.97 µM) | MIC (STR[…] 508): 1.56 µg/mL (≈ 1.97 µM) | MIC (STR[…] EES61): 0.78 µg/mL (≈ 0.985 µM) | MIC [7]: 100 µg/mL (≈ 126 µM) | MIC (ESCHERICHIA COLI JUHL; 24 h): 50 µg/mL (≈ 63.1 µM) | MIC [8]: > 100 µg/mL | MIC [9]: 0.78 µg/mL (≈ 0.985 µM) | MIC [10]: > 100 µg/mL | MIC [11]: 50 µg/mL (≈ 63.1 µM) | MIC [12]: > 100 µg/mL | MIC ([13]; S. epidermidis 3519, BHI agar, 35-37° C., 20 to 24 hours, read-out: MIC): 12.5 µg/mL (≈ 15.8 µM) | MIC [14]: > 100 µg/mL | MIC ([15]; S. aureus ATCC 6538P, BHI agar, 35-37° C., 20 to 24 hours, read-out: MIC): 12.5 µg/mL (≈ 15.8 µM) | MIC (STAPHYLOCOCCUS AUREUS 45): 6.2 µg/mL (≈ 7.83 µM) | MIC ([16]; 24 h): > 100 µg/mL | MIC [17]: > 100 µg/mL | MIC (ESCHERICHIA COLI H560; E. coli H560, BHI agar, 35-37° C., 20 to 24 hours, read-out: MIC): 12.5 µg/mL (≈ 15.8 µM) | MIC (ESCHERICHIA COLI KNK 437): 25 µg/mL (≈ 31.6 µM) | MIC (PSEUDOMONAS CEPACIA 296I): > 100 µg/mL

CC[C@H]1OC(=O)[C@H](C)[C@@H](O[C@H]2C[C@@](C)(OC)[C@@H](O)[C@H](C)O2)[C@H](C)[C@@H](O[C@@H]2O[C@H](C)C[C@H](N(C)C)[C@H]2O)[C@](C)(O)C[C@@H](C)[C@@H](N)[C@H](C)[C@@H](O)[C@@]1(O)CNCc1ccccc1 [Compound 14, (9R)-9-amino-21-benzylamino-9-deoxo-erythromycin A]
MIC ([1]; 24 h): 6.2 µg/mL (≈ 7.38 µM) | MIC ([2]; 24 h): 50 µg/mL (≈ 59.5 µM) | MIC [3]: 3.1 µg/mL (≈ 3.69 µM) | MIC (ESCHERICHIA COLI DC-2; E. coli DC-2, BHI agar, 35-37° C., 20 to 24 hours, read-out: MIC): 100 µg/mL (≈ 119 µM) | MIC [5]: 50 µg/mL (≈ 59.5 µM) | MIC (ESCHERICHIA COLI SS): 0.78 µg/mL (≈ 0.928 µM) | MIC (EN[…] ATCC 8043): 3.1 µg/mL (≈ 3.69 µM) | MIC ([6]; P. aeruginosa K799/61, BHI agar, 35-37° C., 20 to 24 hours, read-out: MIC): 25 µg/mL (≈ 29.8 µM) | MIC (M[…] ATCC 9341): 0.78 µg/mL (≈ 0.928 µM) | MIC (M[…] ATCC 4698): 3.1 µg/mL (≈ 3.69 µM) | MIC (STR[…] 508): 0.39 µg/mL (≈ 0.464 µM) | MIC (STR[…] EES61): 0.2 µg/mL (≈ 0.238 µM) | MIC [7]: > 100 µg/mL | MIC (ESCHERICHIA COLI JUHL; E. coli JUHL, BHI agar, 35-37° C., 20 to 24 hours, read-out: MIC): 100 µg/mL (≈ 119 µM) | MIC [8]: > 100 µg/mL | MIC [9]: 0.2 µg/mL (≈ 0.238 µM) | MIC [10]: > 100 µg/mL | MIC [18]: 6.2 µg/mL (≈ 7.38 µM) | MIC [11]: 3.1 µg/mL (≈ 3.69 µM) | MIC [12]: > 100 µg/mL | MIC ([13]; 24 h): 1.56 µg/mL (≈ 1.86 µM) | MIC [14]: > 100 µg/mL | MIC ([15]; 24 h): 3.1 µg/mL (≈ 3.69 µM) | MIC (STAPHYLOCOCCUS AUREUS 45): 6.2 µg/mL (≈ 7.38 µM) | MIC ([16]; P. stuartii CMX 640, BHI agar, 35-37° C., 20 to 24 hours): > 100 µg/mL | MIC [17]: > 100 µg/mL | MIC (ESCHERICHIA COLI H560; 24 h): 25 µg/mL (≈ 29.8 µM) | MIC (ESCHERICHIA COLI KNK 437): 100 µg/mL (≈ 119 µM) | MIC (PSEUDOMONAS CEPACIA 296I): > 100 µg/mL
